{
  "source": "patent US8192962B2",
  "about": "“Processes for detecting toxic substances” (Daikin Industries, Ltd., priority 2001, dated 2012)",
  "system": "Mitochondria-located protein genes",
  "test": "DNA chip mRNA expression in yeast, mitochondria-located protein genes (Table 2)",
  "assay_type": "cell-based, Saccharomyces cerevisiae S288C",
  "settings": "cells incubated two hours with the chemical substance",
  "how_it_was_run": "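Measured as treated-to-untreated fluorescence ratio on a full-genome yeast DNA chip. Cells (S288C, YPD, 25° C.) were exposed in log phase for two hours to one chemical, dosed to curb growth without killing.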",
  "data": [
    {"smiles": "[Cl][Pb][Cl]", "note": "[(4), PbCl2]", "values": [
      {"measurement": "The level of expressed mRNA in the presence of chemical substance/The level of expressed mRNA in the absence of chemical substance", "setting": "yeast gene YAL039C", "value": 1.0},
      {"measurement": "The level of expressed mRNA in the presence of chemical substance/The level of expressed mRNA in the absence of chemical substance", "setting": "yeast gene YBL022C", "value": 0.7},
      {"measurement": "The level of expressed mRNA in the presence of chemical substance/The level of expressed mRNA in the absence of chemical substance", "setting": "yeast gene YBL030C", "value": 0.9},
      {"measurement": "The level of expressed mRNA in the presence of chemical substance/The level of expressed mRNA in the absence of chemical substance", "setting": "yeast gene YBL038W", "value": 1.8},
      {"measurement": "The level of expressed mRNA in the presence of chemical substance/The level of expressed mRNA in the absence of chemical substance", "setting": "yeast gene YBL099W", "value": 1.4},
      {"measurement": "The level of expressed mRNA in the presence of chemical substance/The level of expressed mRNA in the absence of chemical substance", "setting": "yeast gene YBR003W", "value": 1.9},
      {"measurement": "The level of expressed mRNA in the presence of chemical substance/The level of expressed mRNA in the absence of chemical substance", "setting": "yeast gene YBR044C", "value": 1.9},
      {"measurement": "The level of expressed mRNA in the presence of chemical substance/The level of expressed mRNA in the absence of chemical substance", "setting": "yeast gene YBR091C", "value": 3.0},
      {"measurement": "The level of expressed mRNA in the presence of chemical substance/The level of expressed mRNA in the absence of chemical substance", "setting": "yeast gene YBR122C", "value": 1.1},
      {"measurement": "The level of expressed mRNA in the presence of chemical substance/The level of expressed mRNA in the absence of chemical substance", "setting": "yeast gene YBR185C", "value": 2.0},
      {"measurement": "The level of expressed mRNA in the presence of chemical substance/The level of expressed mRNA in the absence of chemical substance", "setting": "yeast gene YBR221C", "value": 1.5},
      {"measurement": "The level of expressed mRNA in the presence of chemical substance/The level of expressed mRNA in the absence of chemical substance", "setting": "yeast gene YBR251W", "value": 1.2},
      {"measurement": "The level of expressed mRNA in the presence of chemical substance/The level of expressed mRNA in the absence of chemical substance", "setting": "yeast gene YBR282W", "value": 2.3},
      {"measurement": "The level of expressed mRNA in the presence of chemical substance/The level of expressed mRNA in the absence of chemical substance", "setting": "yeast gene YCL057W", "value": 0.5},
      {"measurement": "The level of expressed mRNA in the presence of chemical substance/The level of expressed mRNA in the absence of chemical substance", "setting": "yeast gene YCR046C", "value": 1.6},
      {"measurement": "The level of expressed mRNA in the presence of chemical substance/The level of expressed mRNA in the absence of chemical substance", "setting": "yeast gene YCR083W", "value": 1.8},
      {"measurement": "The level of expressed mRNA in the presence of chemical substance/The level of expressed mRNA in the absence of chemical substance", "setting": "yeast gene YDL067C", "value": 1.3},
      {"measurement": "The level of expressed mRNA in the presence of chemical substance/The level of expressed mRNA in the absence of chemical substance", "setting": "yeast gene YDL181W", "value": 1.8},
      {"measurement": "The level of expressed mRNA in the presence of chemical substance/The level of expressed mRNA in the absence of chemical substance", "setting": "yeast gene YDL198C", "value": 1.4},
      {"measurement": "The level of expressed mRNA in the presence of chemical substance/The level of expressed mRNA in the absence of chemical substance", "setting": "yeast gene YDR079W", "value": 1.1},
      {"measurement": "The level of expressed mRNA in the presence of chemical substance/The level of expressed mRNA in the absence of chemical substance", "setting": "yeast gene YDR178W", "value": 2.2},
      {"measurement": "The level of expressed mRNA in the presence of chemical substance/The level of expressed mRNA in the absence of chemical substance", "setting": "yeast gene YDR231C", "value": 1.5},
      {"measurement": "The level of expressed mRNA in the presence of chemical substance/The level of expressed mRNA in the absence of chemical substance", "setting": "yeast gene YDR258C", "value": 1.4},
      {"measurement": "The level of expressed mRNA in the presence of chemical substance/The level of expressed mRNA in the absence of chemical substance", "setting": "yeast gene YDR298C", "value": 1.3},
      {"measurement": "The level of expressed mRNA in the presence of chemical substance/The level of expressed mRNA in the absence of chemical substance", "setting": "yeast gene YDR347W", "value": 3.5},
      {"measurement": "The level of expressed mRNA in the presence of chemical substance/The level of expressed mRNA in the absence of chemical substance", "setting": "yeast gene YDR377W", "value": 1.4},
      {"measurement": "The level of expressed mRNA in the presence of chemical substance/The level of expressed mRNA in the absence of chemical substance", "setting": "yeast gene YDR529C", "value": 3.2},
      {"measurement": "The level of expressed mRNA in the presence of chemical substance/The level of expressed mRNA in the absence of chemical substance", "setting": "yeast gene YEL024W", "value": 1.1},
      {"measurement": "The level of expressed mRNA in the presence of chemical substance/The level of expressed mRNA in the absence of chemical substance", "setting": "yeast gene YEL039C", "value": 5.1},
      {"measurement": "The level of expressed mRNA in the presence of chemical substance/The level of expressed mRNA in the absence of chemical substance", "setting": "yeast gene YER178W", "value": 1.0},
      {"measurement": "The level of expressed mRNA in the presence of chemical substance/The level of expressed mRNA in the absence of chemical substance", "setting": "yeast gene YFL016C", "value": 0.9},
      {"measurement": "The level of expressed mRNA in the presence of chemical substance/The level of expressed mRNA in the absence of chemical substance", "setting": "yeast gene YGL018C", "value": 3.0},
      {"measurement": "The level of expressed mRNA in the presence of chemical substance/The level of expressed mRNA in the absence of chemical substance", "setting": "yeast gene YGL187C", "value": 1.8},
      {"measurement": "The level of expressed mRNA in the presence of chemical substance/The level of expressed mRNA in the absence of chemical substance", "setting": "yeast gene YGL191W", "value": 1.8},
      {"measurement": "The level of expressed mRNA in the presence of chemical substance/The level of expressed mRNA in the absence of chemical substance", "setting": "yeast gene YGR008C", "value": 3.2},
      {"measurement": "The level of expressed mRNA in the presence of chemical substance/The level of expressed mRNA in the absence of chemical substance", "setting": "yeast gene YGR028W", "value": 1.8},
      {"measurement": "The level of expressed mRNA in the presence of chemical substance/The level of expressed mRNA in the absence of chemical substance", "setting": "yeast gene YGR062C", "value": 1.4},
      {"measurement": "The level of expressed mRNA in the presence of chemical substance/The level of expressed mRNA in the absence of chemical substance", "setting": "yeast gene YGR076C", "value": 2.3},
      {"measurement": "The level of expressed mRNA in the presence of chemical substance/The level of expressed mRNA in the absence of chemical substance", "setting": "yeast gene YGR082W", "value": 1.0},
      {"measurement": "The level of expressed mRNA in the presence of chemical substance/The level of expressed mRNA in the absence of chemical substance", "setting": "yeast gene YGR174C", "value": 2.4},
      {"measurement": "The level of expressed mRNA in the presence of chemical substance/The level of expressed mRNA in the absence of chemical substance", "setting": "yeast gene YGR244C", "value": 1.6},
      {"measurement": "The level of expressed mRNA in the presence of chemical substance/The level of expressed mRNA in the absence of chemical substance", "setting": "yeast gene YHR008C", "value": 1.8},
      {"measurement": "The level of expressed mRNA in the presence of chemical substance/The level of expressed mRNA in the absence of chemical substance", "setting": "yeast gene YIL155C", "value": 3.7},
      {"measurement": "The level of expressed mRNA in the presence of chemical substance/The level of expressed mRNA in the absence of chemical substance", "setting": "yeast gene YJL096W", "value": 1.3},
      {"measurement": "The level of expressed mRNA in the presence of chemical substance/The level of expressed mRNA in the absence of chemical substance", "setting": "yeast gene YJL102W", "value": 0.8},
      {"measurement": "The level of expressed mRNA in the presence of chemical substance/The level of expressed mRNA in the absence of chemical substance", "setting": "yeast gene YJL133W", "value": 0.9},
      {"measurement": "The level of expressed mRNA in the presence of chemical substance/The level of expressed mRNA in the absence of chemical substance", "setting": "yeast gene YJL166W", "value": 1.3},
      {"measurement": "The level of expressed mRNA in the presence of chemical substance/The level of expressed mRNA in the absence of chemical substance", "setting": "yeast gene YJL180C", "value": 1.3},
      {"measurement": "The level of expressed mRNA in the presence of chemical substance/The level of expressed mRNA in the absence of chemical substance", "setting": "yeast gene YJR077C", "value": 1.6},
      {"measurement": "The level of expressed mRNA in the presence of chemical substance/The level of expressed mRNA in the absence of chemical substance", "setting": "yeast gene YJR121W", "value": 1.0}
    ]}
  ]
}
